# Reference: the supplement of paper PMC10307832
# Columns and labels:
# Assay in all cases: relative viability (nuclei count vs DMSO), 5 days (fraction); higher = more cells survive
# [1] = compound: Cn1cc(-c2cnn3c(N)c(Br)c([C@@H]4CCCNC4)nc23)cn1
# In short: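 Viability was defined as treated-well nuclei divided by vehicle-well nuclei, with the median taken over replicate plates. Cells from lung cancer lines sat overnight at 37 °C in 1536-well plates, received five √10-spaced library-drug doses by pinning on vehicle-anchored plates, and grew 5 days without medium change before one-step fixation, permeabilisation and Hoechst staining, 4× imaging and MetaXpress nuclear counts. Only plates with control CV under 25% and at least one doubling were kept.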
# [2] = compound: Cn1cc(-c2cnn3c(N)c(Br)c([C@@H]4CCCNC4)nc23)cn1 + CCNC(=O)c1noc(-c2cc(C(C)C)c(O)cc2O)c1-c1ccc(CN2CCOCC2)cc1 [Luminespib] (partner 0.01 µM)
# In short: (§1)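 For relative viability, nuclei counts in treated wells were divided by those in vehicle wells. Lung cancer cell lines had been pin-tool dosed in 1536-well plates the day after seeding and cultured for 5 days, then fixed and stained in one step (final 0.05% Triton X-100, 1% formaldehyde, 1 ug/ml Hoechst) and imaged at 4×. Doses were one drug alone or a fixed anchor-drug dose plus five library-drug doses (not always all listed) in √10 steps, and values are duplicate-plate medians.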
# [3] = compound: Cn1cc(-c2cnn3c(N)c(Br)c([C@@H]4CCCNC4)nc23)cn1 + COc1cc2c(Oc3ccc(NC(=O)C4(C(=O)Nc5ccc(F)cc5)CC4)cc3F)ccnc2cc1OCCCN1CCOCC1 [Foretinib] (partner 0.25 µM)
# In short: as §1
# [4] = compound: Cn1cc(-c2cnn3c(N)c(Br)c([C@@H]4CCCNC4)nc23)cn1 + COc1cccc2cc(-c3nc([C@H]4CC[C@H](C(=O)O)CC4)n4ncnc(N)c34)[nH]c12 [OSI-027] (partner 0.5 µM)
# In short: as §1
# [5] = compound: Cn1cc(-c2cnn3c(N)c(Br)c([C@@H]4CCCNC4)nc23)cn1 + Cc1cc(Nc2cc(N3CCN(C)CC3)nc(Sc3ccc(NC(=O)C4CC4)cc3)n2)n[nH]1 [Tozasertib] (partner 0.1 µM)
# In short: as §1
# [6] = compound: Cn1cc(-c2cnn3c(N)c(Br)c([C@@H]4CCCNC4)nc23)cn1 + Cc1nc(Nc2ncc(C(=O)Nc3c(C)cccc3Cl)s2)cc(N2CCN(CCO)CC2)n1 [Dasatinib] (partner 0.075 µM)
# In short: as §1
# [7] = compound: Cn1cc(-c2cnn3c(N)c(Br)c([C@@H]4CCCNC4)nc23)cn1 + N=C(N)NC(=N)NCCc1ccccc1 [Phenformin] (partner 250 µM)
# In short: as §1
# [8] = compound: Cn1cc(-c2cnn3c(N)c(Br)c([C@@H]4CCCNC4)nc23)cn1 + CC(=O)Nc1cccc(-n2c(=O)n(C3CC3)c(=O)c3c(Nc4ccc(I)cc4F)n(C)c(=O)c(C)c32)c1 [Trametinib] (partner 0.02 µM)
# In short: as §1
# [9] = compound: Cn1cc(-c2cnn3c(N)c(Br)c([C@@H]4CCCNC4)nc23)cn1 + CC(=O)c1c(C)c2cnc(Nc3ccc(N4CCNCC4)cn3)nc2n(C2CCCC2)c1=O [Palbociclib] (partner 0.5 µM)
# In short: as §1
# [10] = compound: Cn1cc(-c2cnn3c(N)c(Br)c([C@@H]4CCCNC4)nc23)cn1 + NC(=O)Nc1cc(-c2cccc(F)c2)sc1C(=O)N[C@H]1CCCNC1 [AZD7762] (partner 0.2 µM)
# In short: as §1
# [11] = compound: Cn1cc(-c2cnn3c(N)c(Br)c([C@@H]4CCCNC4)nc23)cn1 + Nc1nc2[nH]cc(CCc3ccc(C(=O)N[C@@H](CCC(=O)O)C(=O)O)cc3)c2c(=O)[nH]1 [Pemetrexed] (partner 0.2 µM)
# In short: as §1
# [12] = compound: Cn1cc(-c2cnn3c(N)c(Br)c([C@@H]4CCCNC4)nc23)cn1 + Nc1ncn([C@H]2C[C@H](O)[C@@H](CO)O2)c(=O)n1 [Decitabine] (partner 2 µM)
# In short: as §1
# [13] = compound: Cn1cc(-c2cnn3c(N)c(Br)c([C@@H]4CCCNC4)nc23)cn1 + O=C(CCCCCCC(=O)Nc1ccccc1)NO [Vorinostat] (partner 1 µM)
# In short: as §1
# [14] = compound: Cn1cc(-c2cnn3c(N)c(Br)c([C@@H]4CCCNC4)nc23)cn1 + O=C(c1cc(Cc2n[nH]c(=O)c3ccccc23)ccc1F)N1CCN(C(=O)C2CC2)CC1 [Olaparib] (partner 8 µM)
# In short: as §1
cell line,measurement,setting,value
NCI-H1623,relative viability,[1]; 0.05 µM,0.984
same,relative viability,[1]; 0.1581 µM,0.9
same,relative viability,[1]; 0.5 µM,1.04
same,relative viability,[1]; 1.581 µM,0.942
same,relative viability,[1]; 5 µM,0.755
same,relative viability,[2]; first compound 0.05 µM,0.41
same,relative viability,[2]; first compound 0.1581 µM,0.399
same,relative viability,[2]; first compound 0.5 µM,0.538
same,relative viability,[2]; first compound 1.581 µM,0.851
same,relative viability,[2]; first compound 5 µM,0.322
same,relative viability,[3]; first compound 0.05 µM,0.811
same,relative viability,[3]; first compound 0.1581 µM,0.831
same,relative viability,[3]; first compound 0.5 µM,0.97
same,relative viability,[3]; first compound 1.581 µM,0.844
same,relative viability,[3]; first compound 5 µM,0.606
same,relative viability,[4]; first compound 0.05 µM,0.426
same,relative viability,[4]; first compound 0.1581 µM,0.456
same,relative viability,[4]; first compound 0.5 µM,0.407
same,relative viability,[4]; first compound 1.581 µM,0.418
same,relative viability,[4]; first compound 5 µM,0.382
same,relative viability,[5]; first compound 0.05 µM,0.425
same,relative viability,[5]; first compound 0.1581 µM,0.421
same,relative viability,[5]; first compound 0.5 µM,0.467
same,relative viability,[5]; first compound 1.581 µM,0.41
same,relative viability,[5]; first compound 5 µM,0.38
same,relative viability,[6]; first compound 0.05 µM,0.475
same,relative viability,[6]; first compound 0.1581 µM,0.474
same,relative viability,[6]; first compound 0.5 µM,0.536
same,relative viability,[6]; first compound 1.581 µM,0.477
same,relative viability,[6]; first compound 5 µM,0.399
same,relative viability,[7]; first compound 0.05 µM,0.561
same,relative viability,[7]; first compound 0.1581 µM,0.628
same,relative viability,[7]; first compound 0.5 µM,0.632
same,relative viability,[7]; first compound 1.581 µM,0.567
same,relative viability,[7]; first compound 5 µM,0.432
SW 900,relative viability,[1]; 0.05 µM,0.87
same,relative viability,[1]; 0.1581 µM,0.881
same,relative viability,[1]; 0.5 µM,1
same,relative viability,[1]; 1.581 µM,0.669
same,relative viability,[1]; 5 µM,0.309
same,relative viability,[8]; first compound 0.05 µM,0.772
same,relative viability,[8]; first compound 0.1581 µM,0.746
same,relative viability,[8]; first compound 0.5 µM,0.946
same,relative viability,[8]; first compound 1.581 µM,0.753
same,relative viability,[8]; first compound 5 µM,0.816
same,relative viability,[9]; first compound 0.05 µM,0.53
same,relative viability,[9]; first compound 0.1581 µM,0.527
same,relative viability,[9]; first compound 0.5 µM,0.535
same,relative viability,[9]; first compound 1.581 µM,0.444
same,relative viability,[9]; first compound 5 µM,0.529
same,relative viability,[2]; first compound 0.05 µM,0.184
same,relative viability,[2]; first compound 0.1581 µM,0.176
same,relative viability,[2]; first compound 0.5 µM,0.188
same,relative viability,[2]; first compound 1.581 µM,0.189
same,relative viability,[2]; first compound 5 µM,0.165
same,relative viability,[3]; first compound 0.05 µM,0.828
same,relative viability,[3]; first compound 0.1581 µM,0.817
same,relative viability,[3]; first compound 0.5 µM,0.78
same,relative viability,[3]; first compound 1.581 µM,0.768
same,relative viability,[3]; first compound 5 µM,0.39
same,relative viability,[4]; first compound 0.05 µM,0.597
same,relative viability,[4]; first compound 0.1581 µM,0.612
same,relative viability,[4]; first compound 0.5 µM,0.541
same,relative viability,[4]; first compound 1.581 µM,0.453
same,relative viability,[4]; first compound 5 µM,0.26
same,relative viability,[5]; first compound 0.05 µM,0.59
same,relative viability,[5]; first compound 0.1581 µM,0.66
same,relative viability,[5]; first compound 0.5 µM,0.421
same,relative viability,[5]; first compound 1.581 µM,0.458
same,relative viability,[5]; first compound 5 µM,0.351
same,relative viability,[6]; first compound 0.05 µM,0.496
same,relative viability,[6]; first compound 0.1581 µM,0.585
same,relative viability,[6]; first compound 0.5 µM,0.671
same,relative viability,[6]; first compound 1.581 µM,0.448
same,relative viability,[6]; first compound 5 µM,0.197
same,relative viability,[7]; first compound 0.05 µM,0.656
same,relative viability,[7]; first compound 0.1581 µM,0.776
same,relative viability,[7]; first compound 0.5 µM,0.726
same,relative viability,[7]; first compound 1.581 µM,0.428
same,relative viability,[7]; first compound 5 µM,0.228
same,relative viability,[10]; first compound 0.05 µM,0.607
same,relative viability,[10]; first compound 0.1581 µM,0.618
same,relative viability,[10]; first compound 0.5 µM,0.572
same,relative viability,[10]; first compound 1.581 µM,0.547
same,relative viability,[10]; first compound 5 µM,0.465
same,relative viability,[11]; first compound 0.05 µM,0.449
same,relative viability,[11]; first compound 0.1581 µM,0.468
same,relative viability,[11]; first compound 0.5 µM,0.493
same,relative viability,[11]; first compound 1.581 µM,0.295
same,relative viability,[11]; first compound 5 µM,0.305
same,relative viability,[12]; first compound 0.05 µM,0.383
same,relative viability,[12]; first compound 0.1581 µM,0.409
same,relative viability,[12]; first compound 0.5 µM,0.418
same,relative viability,[12]; first compound 1.581 µM,0.42
same,relative viability,[12]; first compound 5 µM,0.595
same,relative viability,[13]; first compound 0.05 µM,0.47
same,relative viability,[13]; first compound 0.1581 µM,0.362
same,relative viability,[13]; first compound 0.5 µM,0.648
same,relative viability,[13]; first compound 1.581 µM,0.369
same,relative viability,[13]; first compound 5 µM,0.181
same,relative viability,[14]; first compound 0.05 µM,0.897
same,relative viability,[14]; first compound 0.1581 µM,0.97
same,relative viability,[14]; first compound 0.5 µM,0.758
same,relative viability,[14]; first compound 1.581 µM,0.8
same,relative viability,[14]; first compound 5 µM,0.616
